Results from the supplement of paper PMC10307832.

Tests used:
Test in all cases: relative viability (nuclei count vs DMSO), 5 days (fraction); higher = more cells survive
ABC-1 = tested on: ABC-1
How it was run: (§1)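 Lung cancer cell lines were seeded in 1536-well plates and dosed by pin tool the next day, with either a single drug or a fixed anchor-drug dose combined with five library-drug doses (not always all listed) spaced in √10 steps. Five days later, one step fixed the cells and stained their nuclei (final 0.05% Triton X-100, 1% formaldehyde, 1 ug/ml Hoechst), and nuclei were counted on 4× images. Relative viability is the nuclei count in treated wells divided by the count in vehicle wells, and each value is the median of duplicate plates.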

COR-L 105 = tested on: COR-L 105
How it was run: as §1

H3255 = tested on: H3255
How it was run: as §1

HARA = tested on: HARA
How it was run: as §1

HCC-15 = tested on: HCC-15
How it was run: as §1

HCC-366 = tested on: HCC-366
How it was run: as §1

LC-2-ad = tested on: LC-2-ad
How it was run: as §1

LU99A = tested on: LU99A
How it was run: as §1

NCI-H1437 = tested on: NCI-H1437
How it was run: as §1

NCI-H1648 = tested on: NCI-H1648
How it was run: as §1

NCI-H1666 = tested on: NCI-H1666
How it was run: as §1

NCI-H1734 = tested on: NCI-H1734
How it was run: as §1

NCI-H1915 = tested on: NCI-H1915
How it was run: as §1

NCI-H1944 = tested on: NCI-H1944
How it was run: as §1

NCI-H2347 = tested on: NCI-H2347
How it was run: as §1

NCI-H460 = tested on: NCI-H460
How it was run: as §1

NCI-H650 = tested on: NCI-H650
How it was run: as §1

NCI-H727 = tested on: NCI-H727
How it was run: as §1

NCI-H838 = tested on: NCI-H838
How it was run: as §1

PC-14 = tested on: PC-14
How it was run: as §1

RERF-LC-KJ = tested on: RERF-LC-KJ
How it was run: as §1

SW 900 = tested on: SW 900
How it was run: as §1

C=C1C(=O)O[C@@H](CCCCCCCC)[C@@H]1C(=O)O [C-75] + Nc1ncn([C@H]2C[C@H](O)[C@@H](CO)O2)c(=O)n1 [Decitabine] (partner 2 µM)
relative viability (ABC-1; first compound 0.08 µM): 1.03
relative viability (ABC-1; first compound 0.253 µM): 1.18
relative viability (ABC-1; first compound 0.8 µM): 1.08
relative viability (ABC-1; first compound 2.53 µM): 0.72
relative viability (ABC-1; first compound 8 µM): 0.81
relative viability (COR-L 105; first compound 0.08 µM): 0.7
relative viability (COR-L 105; first compound 0.253 µM): 0.685
relative viability (COR-L 105; first compound 0.8 µM): 0.582
relative viability (COR-L 105; first compound 2.53 µM): 0.477
relative viability (COR-L 105; first compound 8 µM): 0.606
relative viability (H3255; first compound 0.08 µM): 0.535
relative viability (H3255; first compound 0.253 µM): 0.599
relative viability (H3255; first compound 0.8 µM): 0.74
relative viability (H3255; first compound 2.53 µM): 0.585
relative viability (H3255; first compound 8 µM): 0.652
relative viability (HARA; first compound 0.08 µM): 0.538
relative viability (HARA; first compound 0.253 µM): 0.444
relative viability (HARA; first compound 0.8 µM): 0.565
relative viability (HARA; first compound 2.53 µM): 0.535
relative viability (HARA; first compound 8 µM): 0.756
relative viability (HCC-15; first compound 0.08 µM): 0.691
relative viability (HCC-15; first compound 0.253 µM): 0.636
relative viability (HCC-15; first compound 0.8 µM): 0.551
relative viability (HCC-15; first compound 2.53 µM): 0.543
relative viability (HCC-15; first compound 8 µM): 0.626
relative viability (HCC-366; first compound 0.08 µM): 0.357
relative viability (HCC-366; first compound 0.253 µM): 0.361
relative viability (HCC-366; first compound 0.8 µM): 0.385
relative viability (HCC-366; first compound 2.53 µM): 0.344
relative viability (HCC-366; first compound 8 µM): 0.289
relative viability (LC-2-ad; first compound 0.08 µM): 0.785
relative viability (LC-2-ad; first compound 0.253 µM): 0.809
relative viability (LC-2-ad; first compound 0.8 µM): 0.755
relative viability (LC-2-ad; first compound 2.53 µM): 0.771
relative viability (LC-2-ad; first compound 8 µM): 0.837
relative viability (LU99A; first compound 0.08 µM): 0.831
relative viability (LU99A; first compound 0.253 µM): 0.78
relative viability (LU99A; first compound 0.8 µM): 0.841
relative viability (LU99A; first compound 2.53 µM): 0.83
relative viability (LU99A; first compound 8 µM): 0.79
relative viability (NCI-H1437; first compound 0.08 µM): 0.57
relative viability (NCI-H1437; first compound 0.253 µM): 0.586
relative viability (NCI-H1437; first compound 0.8 µM): 0.577
relative viability (NCI-H1437; first compound 8 µM): 0.48
relative viability (NCI-H1648; first compound 0.08 µM): 0.487
relative viability (NCI-H1648; first compound 0.253 µM): 0.671
relative viability (NCI-H1648; first compound 0.8 µM): 0.473
relative viability (NCI-H1648; first compound 8 µM): 0.492
relative viability (NCI-H1666; first compound 0.08 µM): 0.741
relative viability (NCI-H1666; first compound 0.253 µM): 0.786
relative viability (NCI-H1666; first compound 0.8 µM): 0.709
relative viability (NCI-H1666; first compound 2.53 µM): 0.638
relative viability (NCI-H1666; first compound 8 µM): 0.678
relative viability (NCI-H1734; first compound 0.08 µM): 0.516
relative viability (NCI-H1734; first compound 0.253 µM): 0.589
relative viability (NCI-H1734; first compound 0.8 µM): 0.457
relative viability (NCI-H1734; first compound 2.53 µM): 0.264
relative viability (NCI-H1734; first compound 8 µM): 0.448
relative viability (NCI-H1915; first compound 0.08 µM): 0.254
relative viability (NCI-H1915; first compound 0.253 µM): 0.24
relative viability (NCI-H1915; first compound 0.8 µM): 0.296
relative viability (NCI-H1915; first compound 2.53 µM): 0.24
relative viability (NCI-H1915; first compound 8 µM): 0.225
relative viability (NCI-H1944; first compound 0.08 µM): 0.423
relative viability (NCI-H1944; first compound 0.253 µM): 0.471
relative viability (NCI-H1944; first compound 0.8 µM): 0.35
relative viability (NCI-H1944; first compound 2.53 µM): 0.368
relative viability (NCI-H1944; first compound 8 µM): 0.461
relative viability (NCI-H2347; first compound 0.08 µM): 0.673
relative viability (NCI-H2347; first compound 0.253 µM): 0.626
relative viability (NCI-H2347; first compound 0.8 µM): 0.653
relative viability (NCI-H2347; first compound 2.53 µM): 0.572
relative viability (NCI-H2347; first compound 8 µM): 0.659
relative viability (NCI-H460; first compound 0.08 µM): 0.469
relative viability (NCI-H460; first compound 0.253 µM): 0.454
relative viability (NCI-H460; first compound 0.8 µM): 0.46
relative viability (NCI-H460; first compound 2.53 µM): 0.198
relative viability (NCI-H460; first compound 8 µM): 0.492
relative viability (NCI-H650; first compound 0.08 µM): 0.315
relative viability (NCI-H650; first compound 0.253 µM): 0.35
relative viability (NCI-H650; first compound 0.8 µM): 0.329
relative viability (NCI-H650; first compound 2.53 µM): 0.294
relative viability (NCI-H650; first compound 8 µM): 0.403
relative viability (NCI-H727; first compound 0.08 µM): 0.887
relative viability (NCI-H727; first compound 0.253 µM): 0.955
relative viability (NCI-H727; first compound 0.8 µM): 0.807
relative viability (NCI-H727; first compound 2.53 µM): 0.767
relative viability (NCI-H727; first compound 8 µM): 0.873
relative viability (NCI-H838; first compound 0.08 µM): 0.445
relative viability (NCI-H838; first compound 0.253 µM): 0.45
relative viability (NCI-H838; first compound 0.8 µM): 0.434
relative viability (NCI-H838; first compound 2.53 µM): 0.369
relative viability (NCI-H838; first compound 8 µM): 0.372
relative viability (PC-14; first compound 0.08 µM): 0.226
relative viability (PC-14; first compound 0.253 µM): 0.233
relative viability (PC-14; first compound 0.8 µM): 0.216
relative viability (PC-14; first compound 2.53 µM): 0.191
relative viability (PC-14; first compound 8 µM): 0.168
relative viability (RERF-LC-KJ; first compound 0.08 µM): 0.682
relative viability (RERF-LC-KJ; first compound 0.253 µM): 0.848
relative viability (RERF-LC-KJ; first compound 0.8 µM): 0.613
relative viability (RERF-LC-KJ; first compound 2.53 µM): 0.568
relative viability (RERF-LC-KJ; first compound 8 µM): 0.605
relative viability (SW 900; first compound 0.08 µM): 0.413
relative viability (SW 900; first compound 0.253 µM): 0.489
relative viability (SW 900; first compound 0.8 µM): 0.46
relative viability (SW 900; first compound 2.53 µM): 0.401
relative viability (SW 900; first compound 8 µM): 0.403
